# In patent publication US20140030346A1, “DISINTEGRABLE CORE PARTICLE FOR PHARMACEUTICAL PREPARATION” (priority 2010, published 2014):
# Columns and labels:
# [1] = Dissolution test, ibuprofen (paddle method, JP second fluid pH 6.8); assay type: physicochemical; settings: JP second fluid pH 6.8, 37° C., 75 rpm
# Protocol: (§1) Dissolution tests were carried oat, according to the procedures shown in Tables 6 to 8 and described below, on pharmaceutical preparations composed of the drug-containing particles obtained in Examples 11 and 12. The results are shown in Tables 9 and 10 and in FIGS. 14 and 15.
# The liquid sampled in the dissolution test is used directly as the sample solution. Analysis according to “2.01 Liquid Chromatography” is carried out on this sample solution. Testing of the ibuprofen content in the sample solution is carried out under the conditions indicated in (1) above.
# In a separate operation, 25 mg of ibuprofen reference is precisely weighed out and dissolved in acetonitrile while bringing the volume up to exactly 50 mL. Next, 5 mL of this solution is precisely measured out and JP second fluid is added so as to bring the volume up to exactly 25 mL, thereby giving a reference solution (about 100 ppm). In a separate operation, 5 mL of this solution is precisely measured out and JP second fluid is added so as to bring the volume up to 50 mL, thereby giving a 50 ppm reference solution. Next, 10 mL of this solution is precisely measured out and JP second fluid is added so as to bring the volume up to exactly 25 mL, thereby giving a […] reference solution. Liquid chromatography is carried out on these reference solutions, and the slopes (a) and intercepts (t) of the straight lines obtained by plotting the peak areas and concentrations of the ibuprofen references are determined. The dissolution rate is determined by entering the content B in the sample solution into the following formula: […]
# [2] = Dissolution test, rabeprazole (paddle method, tris buffer pH 8.0); assay type: physicochemical; settings: tris buffer pH 8.0, 37° C., 50 rpm
# Protocol: as §1
# First, 20 mg of rabeprazole sodium is precisely weighed cut and dissolved by adding 30 mL of an aqueous NaOH solution (0.5 M), after which 45 mL of methanol is added, then the volume is brought up to exactly 100mL with a water-methanol solution (2:3). Two mL of this solution is precisely measured out and brought up to exactly 100 mL with a water-methanol solution (2:3), thereby giving a 4 ppm reference solution. In a separate procedure, 2 mL of the same solution is precisely measured out and brought up to a volume of exactly 200 mL with a water-methanol solution (2:3), thereby giving a 2 ppm reference solution. Liquid chromatography is carried on these reference solutions, and the slopes (a) and intercepts (t) of the straight lines obtained by plotting the peak areas and concentrations of rabeprazole are determined.
# One milliliter of an aqueous NaOH solution (0.5 M) is added to 5 mL of the sample solution at each sampling time, and the resulting solution is thoroughly mixed. Next, 4 mL of this solution is precisely measured out, then 2 mL of an aqueous NaOH solution (0.5 M) and 8 mL of methanol are added, following which the volume is brought up to exactly 20 mL with a water-methanol solution (2:3). Liquid chromatography is then carried cut under the conditions described above, and the peak area (Qt) for rabeprazole is determined. Both the reference solutions and the sample solution are used as injection solutions after filtration with a membrane filter having a pore sire of 0.2 μm.
# Dissolution rate (%)=(Qt−t)/a×5×6/5×900/1,000/amount of rabeprazole Na collected (mg)×100
Dissolution rate ([1]; dissolution time 5 min) [%],Dissolution rate ([1]; dissolution time 10 min) [%],Dissolution rate ([1]; dissolution time 15 min) [%],Dissolution rate ([1]; dissolution time 20 min) [%],Dissolution rate ([1]; dissolution time 30 min) [%],Dissolution rate ([1]; dissolution time 60 min) [%],Dissolution rate ([2]; dissolution time 5 min) [%],Dissolution rate ([2]; dissolution time 10 min) [%],Dissolution rate ([2]; dissolution time 15 min) [%],Dissolution rate ([2]; dissolution time 20 min) [%],Dissolution rate ([2]; dissolution time 30 min) [%],Dissolution rate ([2]; dissolution time 60 min) [%],SMILES
49.5,77.3,83.4,86.0,89.6,95.0,–,–,–,–,–,–,"CC(C)Cc1ccc(C(C)C(=O)O)cc1 (stereo not drawn) [IBP-Ref., Ibuprofen]"
–,–,–,–,–,–,78.6,86.0,87.1,87.5,85.5,78.4,"COCCCOc1ccnc(C[S+]([O-])c2nc3ccccc3[nH]2)c1C (stereo not drawn) [RBP-Ref., Rabeprazole Na]"
